We go through one molecule from publication PMC8998904, “Identification and New Indication of Melanin-Concentrating Hormone Receptor 1 (MCHR1) Antagonist Derived from Machine Learning and Transcriptome-Based Drug Repositioning Approaches” (International Journal of Molecular Sciences, 2022).

SMILES strings stand for the structures.

For data set [1], the system named is methionine-choline-deficient (MCD) diet induced NASH mouse model. Nature of the data set: MCD diet-induced NASH mouse model. Format: in vivo, C57BL/6 mice. The settings on record: 30 mg/kg once-daily oral, 4 weeks. As for the experimental part: In addition, the MCD diet-induced histopathological changes, such as steatosis and fibrosis in liver tissues, were ameliorated by treatment with KRX-104130 (Figure 8D).
Animal studies were carried out following the guidelines for animal care approved by the Institutional Animal Care and Use Committee at the Korea Research Institute of Chemical Technology (approval number: 2020-6A-10-01). Nine-week-old male C57BL/6 mice (Orient Bio, Sungnam, Korea) were randomly divided into three groups: a control group that was fed MCS diet, the NASH model group, and the treatment group that was fed an MCD diet with once-daily oral administration of vehicle (0.5% carboxymethyl cellulose) or 30 mg/kg KRX-104130. After 4 weeks of feeding, the mice were fasted overnight, and blood and tissue samples were obtained for biochemical and histological analyses. Liver TG levels and serum concentrations of liver injury markers, including ALT and AST, were determined using a colorimetric kit (MAK266, Sigma-Aldrich, St. Louis, MO, USA) or biochemical analyzer (AU480, Beckman Coulter, Atlanta, GA, USA), respectively, according to the manufacturer’s instructions. The left lobe of the liver was fixed in 10% neutralized buffered formalin and embedded in paraffin. Histological examination was performed using hematoxylin and eosin (H&E) and picrosirius red staining of 5 µm-thick sections.

The target in data set [2] is T1, human recombinant MCH-1 receptor (Homo sapiens, UniProt Q99705).
T1 construct: purchased Euroscreen S.A. (PerkinElmer)
Nature of the data set: Time-resolved fluorescence (TRF)-based MCHR1 receptor-binding assay with Eu-MCH. The method, then:
An in vitro time-resolved fluorescence (TRF)-based binding assay for MCHR1 was performed to identify the MCHR1 antagonist from the 19 predicted compounds selected through in silico screening. […] In addition, a patch clamp assay was performed to measure the cardiotoxicity of the five compounds. […] Consequently, of the five compounds, only KRX-104130 and KRX-104165 overcame cardiotoxicity.
The receptor-binding affinities of the generated 19 compounds were determined by time-resolved fluorescence (TRF)-based receptor-binding assays using europium-labeled MCH (Eu-MCH) in 96-well AcroWell™ plates. The MCH labeled with europium at the N-1 position was supplied by the Wallac Labeling Service (PerkinElmer, Inc., Waltham, MA, USA). The human recombinant MCH-1 receptor membrane preparation (MCH-1/SLC1 membrane) was obtained from Euroscreen S.A. (PerkinElmer). The binding assay buffer contained 25 mM 4-(2-hydroxyethyl)-1-piperazineethanesulfonic acid (HEPES; pH 7.4), 5 mM MgCl2, 1 mM CaCl2, and 0.5% bovine serum albumin. Total binding was determined from the binding reaction in the presence of 2 nM Eu-MCH and 5 μg/unit MCH-1 receptor membrane for 90 min. Nonspecific Eu–MCH binding was defined in the presence of 0.5 µM unlabeled MCH. After incubation for 90 min, the plate was washed three times with 300 µL of ice-cold 25 mM HEPES buffer (pH 7.4) in an automatic vacuum filtration system. The Eu was dissociated from the bound ligand by the addition of 150 µL of DELFIA enhancement solution (Perkin Elmer) and incubated for 10 min with shaking. Fluorescence signals from dissociated Eu were measured using a multilabel reader (Envision, PerkinElmer) with an excitation wavelength (340 nm) and an emission wavelength (615 nm).

A short description of data set [3]: Plasma pharmacokinetic profile in mice (I.V. and P.O.). The settings on record: for AUC(0-t): AUC0–t, n=3.
The test system of data set [4] is LDLR. Description: Western blot assay of LDLR protein expression in HepG2 cells. The class given is cell-based, human. The settings on record: HepG2 cells, 3, 10 and 30 μM. As for the experimental part:
(§1) To validate that KRX-104130 increased the LDLR gene expression through the DEG analysis, LDLR mRNA expression was investigated in KRX-104130–treated HepG2 cells.
The protein expression levels of LDLR in the HepG2 cells were determined by Western blot assay at Cosmo Genetech (Sungsoo, Seoul, Korea). Briefly, cell protein extracts were prepared using radioimmunoprecipitation assay buffer (Thermo Scientific, Pierce, Rockford, IL, USA). Twenty micrograms of protein lysate were separated by electrophoresis on a 10% sodium dodecyl-sulfate (SDS)-polyacrylamide gel electrophoresis (PAGE) gel (Bio-Rad, Hercules, CA, USA) and transferred to a nitrocellulose membrane (Hybond-C Extra; GE Healthcare, Piscataway, NJ, USA). Nonspecific binding was blocked with 5% milk and incubated with 1:1000 primary antibody (LDLR Rabbit-mAb, #ab52818, Abcam) overnight at 4 °C. The secondary antibodies (horseradish peroxidase [HRP]-conjugated mouse anti-rabbit IgG, #SC-2357, Santa Cruz) were diluted 1:3000 in a fresh blocking solution. Protein bands were detected using the SuperSignal West Femto Kit (Thermo Fisher Scientific Inc., Waltham, MA, USA).
In general terms: Immunoblotting shows a protein as a band on a membrane.

For data set [5], the system named is LDLR. Nature of the data set: RT-qPCR analysis of LDLR mRNA expression in HepG2 cells. The class given is cell-based, human. Particulars: HepG2 cells, 3, 10 and 30 μM, 24 h. As for the experimental part: as §1
The mRNA expression levels of LDLR in the HepG2 cells were determined by real-time quantitative PCR (RT-qPCR) at the Cosmo Genetech (Sungsoo, Seoul, Korea). The total RNA was extracted from the cultured cells using an RNeasy mini kit (Qiagen, Valencia, CA, USA), and gene expression was analyzed by RT-qPCR using a Bio-Rad CFX96 system (Hercules, CA, USA). The mRNA expression levels were investigated three times in each sample treated with 0 μM, 3 μM, 10 μM, and 30 μM KRX-104130 for 24 h, and each result was obtained from three independent experiments, for 12 samples. For LDLR, the forward primer was 5′-CTCCCGCCAAGATCAAGAAA-3′, and the reverse primer was 5′-GAGATCTAGGGTGATGCCATTG-3′. The housekeeping gene, glyceraldehyde 3-phosphate dehydrogenase (GAPDH), was used as an internal control. The forward primer was 5′-TTGCCATCAATGACCCCTTCA-3′, and the reverse primer was 5′-CGC CCC ACT TGA TTT TGG A-3′. The PCR conditions for all genes were 40 cycles of pre-denaturation at 95 °C for 3 min, amplification at 62 °C for 30 s, and 95 °C for 10 s. The qPCR was performed using CFX manager (Version 3.1).

T1 sequence (Q99705 whole entry): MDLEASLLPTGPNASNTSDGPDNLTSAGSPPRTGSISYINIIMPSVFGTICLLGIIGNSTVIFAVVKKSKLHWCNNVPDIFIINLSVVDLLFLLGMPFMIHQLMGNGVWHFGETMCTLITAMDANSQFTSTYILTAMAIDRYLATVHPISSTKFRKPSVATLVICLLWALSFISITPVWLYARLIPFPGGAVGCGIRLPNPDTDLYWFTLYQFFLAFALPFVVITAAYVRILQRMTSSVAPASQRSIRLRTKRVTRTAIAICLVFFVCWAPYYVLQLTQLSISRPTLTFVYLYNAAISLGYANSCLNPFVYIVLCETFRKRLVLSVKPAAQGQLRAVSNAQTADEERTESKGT

As to `COc1nc2cc(F)c(F)cc2nc1NC(=O)NC1CCN(Cc2cc3ccccc3[nH]2)CC1` [KRX-104130], in data set [1] (H&E and picrosirius red), the “MCD diet-induced histopathological changes (steatosis and fibrosis in liver tissues)” value is “ameliorated”. In data set [1] (mean ± S.E.M.), the “Liver TG levels” value is on record as 29.73 ± 1.54, the “Serum ALT” value turned out to be 163.67 ± 25.85 and the “Serum AST” value is listed as 170.5 ± 27.27. Also, in data set [2] (10 μM, TRF MCHR1 binding, read-out: inhibition rate (%) at 10 μM), the inhibition at 10 µM is 97.1%. In addition, the IC50 in data set [2] (TRF-based binding, 2 nM Eu-MCH) came out at 20 nM. In addition, the “Tolerability / death after administration to mice” value in data set [3] (mice, pharmacokinetic study) is “without specific abnormalities”. In data set [3] (mouse, plasma, iv, 10 mg/kg), the Vd was 14.2 ± 0.72 L/kg, the clearance was 36.8 mL/min/kg and the half-life is 5.71 ± 1.03 h. This molecule returned an AUC(0-t) in data set [3] (mouse, plasma, iv, 10 mg/kg, mice, I.V.) of 4550 ± 220 ng·h/mL. Also, the bioavailability in data set [3] (mouse, plasma, oral, 20 mg/kg) is 20.3%. In addition, in data set [3] (mouse, plasma, po, 20 mg/kg), the Cmax stood at 130 ± 50 ng/mL, the Tmax worked out at 6.67 ± 2.31 h and the half-life is 10.2 h. The AUC(0-t) in data set [3] (mouse, plasma, po, 20 mg/kg, mice, P.O.) was 1720 ± 850 ng·h/mL. The LDLR protein level entry in the data set on LDLR [4] was “increased in a concentration-dependent manner”. For the same molecule, in the data set on LDLR [5], the “LDLR mRNA expression level” value is “LDLR upregulation in a concentration-dependent manner”.

Usually inhibition stands for the change of the read-out against control, counted positive when it falls. The IC50 is the concentration needed to halve the response being measured. One may read the half-life as the time in which the quantity being followed falls by half. High values mean slow decline, low ones rapid decline. In general, AUC(0-t) refers to the area under the concentration-time curve up to a stated or last time point. Read a high AUC(0-t) as high exposure. For orientation: bioavailability means dose-corrected exposure relative to a reference, in per cent. Read a high bioavailability as much systemic uptake. The term Cmax denotes the peak of the concentration-time curve. Usually Tmax stands for the time at which the peak concentration occurs.
